This passage reports TGI and GI50 results from PubChem BioAssay (NCI).

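Protocol summary: plate cells (96-well), add compound at 5 concentrations, incubate 48 h, interpolate endpoints linearly. GI50 = concentration required for 50% inhibition of growth. TGI is the concentration that stops growth completely.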

Test systems include OVCAR-3 ovarian; K-562 leukemia; LOX IMVI melanoma; M19-MEL melanoma; 786-0 renal; UO-31 renal; CAKI-1 renal; HCT-116 colon; DMS 114 small cell lung; DLD-1 colon.
Holding throughout (test): NCI anticancer screen, dose series, 48 h

Consider `CCC(=O)C(C)C1=Nc2nnc(CCCCCCCc3nnc4n3C(=O)C(C(C)C(=O)CC)=N4)n2C1=O` (stereo unspecified), for which the TGI with OVCAR-3 ovarian, in the assay on K-562 leukemia, with LOX IMVI melanoma, in the assay on M19-MEL melanoma, in the assay with 786-0 renal and in the assay with UO-31 renal was > 100 µM throughout. In addition, the TGI with CAKI-1 renal, with HCT-116 colon and with DMS 114 small cell lung was > 100 µM in each case.

On to `CC(=O)OC1CC2C(C)(C)C(=O)C=C[C@]2(C)C2CCC3(C)C(c4ccoc4)C(=O)[C@H]4O[C@]43[C@]12C` (stereo partly specified), for which the TGI in the assay on K-562 leukemia worked out at 59.5 µM; with LOX IMVI melanoma, 42.6 µM; in the assay on M19-MEL melanoma it was 55.2 µM; in the assay with 786-0 renal, 35.5 µM; in the assay on DLD-1 colon, 28.3 µM; in the assay on UO-31 renal, 32.7 µM. The TGI was 75.1 µM in the assay with CAKI-1 renal, 28.7 µM in the assay with HCT-116 colon and > 100 µM in the assay on DMS 114 small cell lung.

With `COC1CC2C=C(C)/C=C/C=C/C(=O)NC(c3ccccc3)C/C=C/CCC(O)CC(=O)C2=C1O` (stereo unspecified), the GI50 was 0.271 µM in the assay on OVCAR-3 ovarian; 0.212 µM in the assay on K-562 leukemia; 0.297 µM with LOX IMVI melanoma; 0.434 µM with 786-0 renal; 0.281 µM in the assay with UO-31 renal; 0.314 µM in the assay on CAKI-1 renal. Further, the GI50 in the assay on HCT-116 colon is 0.272 µM. Moreover, the TGI came to 0.894 µM with OVCAR-3 ovarian; 1.03 µM in the assay on K-562 leukemia; 1.22 µM in the assay on LOX IMVI melanoma; 1.66 µM in the assay on 786-0 renal; 1.14 µM with UO-31 renal; 1.01 µM with CAKI-1 renal. In the assay on HCT-116 colon, this compound returned a TGI of 1.22 µM.

As for `NNc1nc2ccccc2c(=O)n1NC(=O)C(=O)Nc1cccc(C(F)(F)F)c1`, the TGI with OVCAR-3 ovarian, in the assay on K-562 leukemia, with LOX IMVI melanoma, in the assay with 786-0 renal, with UO-31 renal and in the assay on CAKI-1 renal was > 100 µM each time. Besides, the TGI with HCT-116 colon was > 100 µM.

With `CCCCCC(=O)c1ccc2[nH]c3c(C)cc([N+](=O)[O-])c(C)c3c2c1`, the TGI is > 100 µM with OVCAR-3 ovarian; 92.5 µM in the assay on K-562 leukemia; > 100 µM with LOX IMVI melanoma; > 100 µM in the assay with M19-MEL melanoma; > 100 µM in the assay with 786-0 renal; > 100 µM in the assay on UO-31 renal. Moreover, the TGI with CAKI-1 renal, in the assay with HCT-116 colon and in the assay on DMS 114 small cell lung was > 100 µM in each case.

For the compound `O=c1nc(Nc2cccc(Cl)c2)oc2cc(Cl)oc(=O)c12`, the GI50 was 3.48 µM in the assay with OVCAR-3 ovarian; 16.4 µM in the assay with K-562 leukemia; 11.9 µM in the assay on LOX IMVI melanoma; 20.2 µM with 786-0 renal; 5.46 µM in the assay with UO-31 renal; 5.93 µM in the assay with CAKI-1 renal. The GI50 in the assay on HCT-116 colon was 10.7 µM. Besides, the TGI with OVCAR-3 ovarian was 13.3 µM; in the assay with K-562 leukemia it was > 100 µM; with LOX IMVI melanoma it was > 100 µM; in the assay on 786-0 renal it was 66.4 µM; in the assay with UO-31 renal, 21.7 µM; with CAKI-1 renal it was 21.5 µM. The same compound displayed a TGI in the assay on HCT-116 colon of 41.3 µM.

`O=C(Nc1ccc(Cl)cc1)c1ccc(NC2=C(Cl)C(=O)N(Cc3ccccc3)C2=O)cc1`: the GI50 was 12.6 µM in the assay with OVCAR-3 ovarian; 3.29 µM in the assay on K-562 leukemia; 12.7 µM with LOX IMVI melanoma; 10.8 µM with 786-0 renal; 14.7 µM in the assay on UO-31 renal; 15.3 µM with CAKI-1 renal. Besides, the GI50 in the assay on HCT-116 colon is 2.41 µM. The TGI in the assay on OVCAR-3 ovarian was determined as 28 µM; with K-562 leukemia, 48.9 µM; in the assay on LOX IMVI melanoma, 32.7 µM; in the assay on 786-0 renal, 24.4 µM; in the assay with UO-31 renal, 29.8 µM; with CAKI-1 renal, 31.5 µM. Also, the TGI in the assay on HCT-116 colon is 7.59 µM.

Regarding `O=S(=O)(NCC1CCC(CNc2ccc(Cl)cc2)CC1)c1ccc(-c2ccccc2)cc1` (stereo unspecified), the GI50 with OVCAR-3 ovarian is 10.7 µM; in the assay with K-562 leukemia it was 17.4 µM; in the assay with LOX IMVI melanoma it was 45.7 µM; in the assay on 786-0 renal, > 50 µM; in the assay with UO-31 renal, > 50 µM; with CAKI-1 renal, 25.6 µM. The GI50 in the assay on HCT-116 colon is 32.2 µM. Also, the TGI in the assay on OVCAR-3 ovarian, in the assay with K-562 leukemia, in the assay on LOX IMVI melanoma, in the assay with 786-0 renal, in the assay with UO-31 renal and in the assay with CAKI-1 renal was > 50 µM in each case. For the same compound, the TGI in the assay on HCT-116 colon is > 50 µM.

Consider `Nc1ccc2c(c1)NCCN2`, for which the TGI in the assay with OVCAR-3 ovarian, in the assay with K-562 leukemia, with LOX IMVI melanoma, in the assay with 786-0 renal, with UO-31 renal and in the assay on CAKI-1 renal was > 100 µM throughout. Further, in the assay on HCT-116 colon, the TGI is > 100 µM.

As to `CN1NC2(CCCCC2)ON=C1c1ccccc1`, the TGI in the assay on OVCAR-3 ovarian, in the assay with K-562 leukemia, in the assay with LOX IMVI melanoma, in the assay on 786-0 renal, in the assay with DLD-1 colon and in the assay on CAKI-1 renal was > 100 µM in each case. In addition, the TGI in the assay with HCT-116 colon and in the assay on DMS 114 small cell lung was > 100 µM throughout.

On to `C#CC1(O)C(COP(=O)(O)OC2CC(n3cc(F)c(=O)[nH]c3=O)OC2CO)OC(n2ccc(N)nc2=O)C1O` (stereo unspecified), for which the GI50 was 0.031 µM in the assay on OVCAR-3 ovarian; 0.0101 µM in the assay with K-562 leukemia; < 0.01 µM with LOX IMVI melanoma; < 0.0117 µM in the assay on 786-0 renal; < 0.0128 µM in the assay on UO-31 renal; < 0.01 µM with CAKI-1 renal. Moreover, the GI50 in the assay with HCT-116 colon is < 0.01 µM. Further, the TGI was > 100 µM in the assay on K-562 leukemia; 1.87 µM with LOX IMVI melanoma; > 100 µM with 786-0 renal; 0.0813 µM in the assay on CAKI-1 renal; > 100 µM in the assay on HCT-116 colon.

For the compound `CC/C=C\C[C@H](O)C/C=C1/C(=O)C=C[C@@H]1C/C=C\CCCC(=O)N(C)C`, the GI50 with OVCAR-3 ovarian was 0.471 µM; with K-562 leukemia, 1.02 µM; in the assay on LOX IMVI melanoma, 0.356 µM; with 786-0 renal, 0.504 µM; in the assay on UO-31 renal it was 1.41 µM; in the assay with CAKI-1 renal, 1.22 µM. The GI50 in the assay on HCT-116 colon was 0.44 µM. Moreover, the TGI with OVCAR-3 ovarian is 1.79 µM; in the assay with K-562 leukemia it was > 100 µM; with LOX IMVI melanoma, 1.54 µM; with 786-0 renal, 2.09 µM; in the assay with UO-31 renal it was 2.93 µM; in the assay on CAKI-1 renal, 2.67 µM. In the assay with HCT-116 colon, this compound registered a TGI of 1.68 µM.
